The nature of the data set: 10-day stability test in water and in 96 % ethanol, room temperature, normal day light, capillary electrophoresis. The format is physicochemical. The note with it: 10-days storage in 96 % ethanol. Here is the method: A 10-day stability test in water and in 96 % ethanol at room temperature and exposure to normal day light, using 4-hydroxytamoxifen and the 4-hydrorytamoxifen/ γ-cyclodextrin complex prepared according to example 1 was performed. The change of E/Z isomer ratio was analyzed with capillary electrophoresis.

One substance from patent EP1043986B1, “MIXTURE AND PHARMACEUTICAL COMPOSITION COMPRISING Z-4-HYDROXYTAMOXIFEN AND CYCLODEXTRIN” (priority 1997, dated 1999) can be followed below.

For the substance “1-(p-β-dimethylaminoethoxyphenyl)-1-(p-hydroxyphenyl)-2-phenylbut-1-en [4-Hydroxytamoxifen]”, the “Efficiency value (ratio of uncomplexed and complexed 4-hydroxytamoxifen re/z values)” value is 4,65. Moreover, the Ratio re/z (room temperature, normal day light) is given as 0,223.
